# Laboratory results from US20260317299A1, “PIKFYVE PROTEIN KINASE DEGRADATION AGENT AND USE THEREOF” (Shanghai Institute of Organic Chemistry, Chinese Academy of …, priority 2023, published 2026).
# Molecular target: T1, PIKfyve (Homo sapiens, UniProt Q9Y2I7)
# T1 construct: endogenous in cells; host or cells: VCaP
# Assay: Degradation of PIKfyve proteins in VCaP tumor cells (24 h, Western blot)
# Assay type: cell-based
# Details: 37° C., compared with DMSO control, WB, read-out: DC50 (concentration that achieves 50% degradation activity)
# Description: Method: 200 μL of cells at a density of 5×10^6 cells/ml were inoculated into a 6-well plate, and then different concentrations of drugs were added. The cells were treated at 37° C. for 24 h. The […] was collected and washed with PBS twice. Then, 100-200 μL of 1×SDS lysate was added, and the cell lysate was collected into a centrifuge tube. The cells were disrupted ultrasonically for 10-20 sec, and boiled for 10 min. Protein samples were subjected to SDS-PAGE electrophoresis at a voltage of 90 V, transferred to PVDF membranes at 110 V, blocked with 5% BSA for 4 h, incubated with primary antibodies (PIKfyve, GAPDH) at 4° C. overnight, and incubated with secondary antibodies (anti-Rabbit IgG or anti-Mouse IgG) at room temperature. The membranes were washed with TBST buffer, developed with an ECL developing solution, and then imaged to obtain protein band signals, with single-concentration WB results as shown in FIG. 1. Compared with the DMSO control group, the concentration that achieves 50% degradation activity is defined as DC50.
# T1 sequence (Q9Y2I7 whole entry): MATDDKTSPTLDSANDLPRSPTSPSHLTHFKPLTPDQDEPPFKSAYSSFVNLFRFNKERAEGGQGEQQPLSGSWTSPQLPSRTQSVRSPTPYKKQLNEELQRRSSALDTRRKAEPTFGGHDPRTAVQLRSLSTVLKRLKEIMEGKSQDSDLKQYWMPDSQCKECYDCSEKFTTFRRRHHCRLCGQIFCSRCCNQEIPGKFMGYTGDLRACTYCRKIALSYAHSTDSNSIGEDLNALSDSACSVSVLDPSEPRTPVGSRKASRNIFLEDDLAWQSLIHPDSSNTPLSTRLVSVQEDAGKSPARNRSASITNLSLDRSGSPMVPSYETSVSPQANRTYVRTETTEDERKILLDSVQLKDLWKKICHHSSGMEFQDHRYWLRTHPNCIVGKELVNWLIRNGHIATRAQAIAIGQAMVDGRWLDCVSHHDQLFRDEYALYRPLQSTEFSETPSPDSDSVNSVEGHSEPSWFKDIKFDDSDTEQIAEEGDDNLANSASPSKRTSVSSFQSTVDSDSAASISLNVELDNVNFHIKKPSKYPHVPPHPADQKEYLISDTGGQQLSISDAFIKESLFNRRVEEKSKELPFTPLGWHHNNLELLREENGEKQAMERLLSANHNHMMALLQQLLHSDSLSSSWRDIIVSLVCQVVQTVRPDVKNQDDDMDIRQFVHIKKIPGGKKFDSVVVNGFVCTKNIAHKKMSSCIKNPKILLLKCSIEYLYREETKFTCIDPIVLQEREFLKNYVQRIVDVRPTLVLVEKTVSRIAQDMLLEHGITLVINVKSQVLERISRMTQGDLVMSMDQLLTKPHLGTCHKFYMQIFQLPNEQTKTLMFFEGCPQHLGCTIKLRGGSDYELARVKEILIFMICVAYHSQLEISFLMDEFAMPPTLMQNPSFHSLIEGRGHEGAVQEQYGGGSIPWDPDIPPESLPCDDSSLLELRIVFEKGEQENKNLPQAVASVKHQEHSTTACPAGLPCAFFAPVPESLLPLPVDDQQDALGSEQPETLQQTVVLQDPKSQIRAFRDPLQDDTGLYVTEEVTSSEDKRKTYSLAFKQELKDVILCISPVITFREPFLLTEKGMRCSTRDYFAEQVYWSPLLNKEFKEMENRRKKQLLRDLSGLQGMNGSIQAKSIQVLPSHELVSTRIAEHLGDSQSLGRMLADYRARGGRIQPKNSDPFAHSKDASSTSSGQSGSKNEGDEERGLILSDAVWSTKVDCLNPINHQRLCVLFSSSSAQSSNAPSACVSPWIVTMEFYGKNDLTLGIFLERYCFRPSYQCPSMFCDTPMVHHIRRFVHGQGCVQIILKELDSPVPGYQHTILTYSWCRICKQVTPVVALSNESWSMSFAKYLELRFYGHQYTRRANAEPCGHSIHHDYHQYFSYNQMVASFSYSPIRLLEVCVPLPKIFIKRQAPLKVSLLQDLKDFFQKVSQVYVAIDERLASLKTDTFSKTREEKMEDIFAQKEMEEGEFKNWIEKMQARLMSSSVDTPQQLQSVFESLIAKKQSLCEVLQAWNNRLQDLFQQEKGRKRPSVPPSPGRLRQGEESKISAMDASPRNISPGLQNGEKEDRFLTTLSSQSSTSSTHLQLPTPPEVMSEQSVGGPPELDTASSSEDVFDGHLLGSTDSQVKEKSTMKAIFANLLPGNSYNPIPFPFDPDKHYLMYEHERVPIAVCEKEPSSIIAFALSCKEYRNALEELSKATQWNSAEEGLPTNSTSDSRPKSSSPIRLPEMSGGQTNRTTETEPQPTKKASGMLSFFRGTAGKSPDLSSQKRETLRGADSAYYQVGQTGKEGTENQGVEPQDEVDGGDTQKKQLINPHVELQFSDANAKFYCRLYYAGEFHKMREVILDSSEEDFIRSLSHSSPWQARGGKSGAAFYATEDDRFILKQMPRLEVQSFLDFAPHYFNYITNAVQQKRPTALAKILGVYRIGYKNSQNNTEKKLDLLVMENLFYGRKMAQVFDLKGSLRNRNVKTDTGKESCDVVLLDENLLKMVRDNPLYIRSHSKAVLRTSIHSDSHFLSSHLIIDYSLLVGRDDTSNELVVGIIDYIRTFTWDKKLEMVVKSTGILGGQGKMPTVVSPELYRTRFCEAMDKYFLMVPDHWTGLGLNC
row,DC50 [nM],SMILES
1,1 to 100,"Cc1cccc(/C=N/Nc2cc(N3CCOCC3)nc(OCCc3ccc(NC(=O)CCC(=O)Nc4cccc5c4C(=O)N(C4CCC(=O)NC4=O)C5)cc3)n2)c1 (centres unmarked) [Example 32, (E)-N^1-(2-(2,6-dioxopiperidin-3-yl)-3-oxoisoindolin-4-yl)-N^4-(4-(2-((4-(2-(3-methylbenzylidene)hydrazino)-6-morpholinopyrimidin-2-yl)oxy)ethyl)phenyl)succinimide]"
2,100 to 10000,"Cc1cccc(-c2ccn(-c3cc(N4CCOCC4)nc(OCCc4ccc(C#CC5CCN(c6cc7c(cc6F)C(=O)N(C6CCC(=O)NC6=O)C7=O)CC5)cc4)n3)n2)c1 (centres unmarked) [Example 90, 2-(2,6-Dioxopiperidin-3-yl)-5-fluoro-6-(4-((4-(2-((4-morpholino-6-(3-(m-tolyl)-1H-pyrazol-1-yl)pyrimidin-2-yl)oxy)ethyl)phenyl)ethynyl)piperidin-1-yl)isoindoline-1,3-dione]"
3,1 to 100,"Cc1cccc(-c2ccn(-c3cc(N4CCOCC4)nc(OC4CCN(c5ccc(N6CCN(C(=O)CC[C@H](NC(=O)[C@@H]7C[C@@H](O)CN7C(=O)[C@@H](NC(=O)C7(F)CC7)C(C)(C)C)c7ccc(-c8scnc8C)cc7)CC6)cc5)CC4)n3)n2)c1 [Example 85, (2S,4R)-1-((S)-2-(1-fluorocyclopropane-1-carboxamido)-3,3-dimethylbutanoyl)-4-hydroxy-N—((S)-1-(4-(4-methylthiazol-5-yl)phenyl)-4-(4-(4-(4-((4-morpholino-6-(3-(m-tolyl)-1H-pyrazol-1-yl)pyrimidin-2-yl)oxy)piperidin-1-yl)phenyl)piperazin-1-yl)-4-oxobutyl) pyrrolidine-2-carboxamide]"
4,1 to 100,"Cc1cccc(/C=N/Nc2cc(N3CCOCC3)nc(OCCc3ccc(NC(=O)CCCC(=O)N[C@H](C(=O)N4C[C@H](O)C[C@H]4C(=O)NCc4ccc(-c5scnc5C)cc4)C(C)(C)C)cc3)n2)c1 [Example 41, N^1—((S)-1-((2S,4R)-4-hydroxy-2-((4-(4-methylthiazol-5-yl)benzyl)carbamoyl)pyrrolidine-1-yl)-3,3-dimethyl-1-oxobutan-2-yl)-N^5-(4-(2-((4-(2-((E)-3-methylbenzylidene) hydrazino)-6-morpholinopyrimidin-2-yl)oxy)ethyl)phenyl)glutaramide]"
5,100 to 10000,"Cc1cccc(-c2ccn(-c3cc(N4CCOCC4)nc(Oc4ccc(N5CCC(N6CCN(c7cc8c(cc7F)C(=O)N(C7CCC(=O)NC7=O)C8=O)CC6)CC5)cc4)n3)n2)c1 (centres unmarked) [Example 94, 2-(2,6-Dioxopiperidin-3-yl)-5-fluoro-6-(4-(1-(4-((4-morpholino-6-(3-(m-tolyl)-1H-pyrazol-1-yl)pyrimidin-2-yl)oxy)phenyl)piperidin-4-yl)piperazin-1-yl)isoindoline-1,3-dione]"
6,1 to 100,Cc1cccc(/C=N/Nc2cc(N3CCOCC3)nc(OCCc3ccc(NC(=O)CCCCCC(=O)N[C@H](C(=O)N4C[C@H](O)C[C@H]4C(=O)N[C@@H](C)c4ccc(-c5scnc5C)cc4)C(C)(C)C)cc3)n2)c1 [Example 47]
7,100 to 10000,"Cc1cccc(/C=N/Nc2cc(N3CCOCC3)nc(OCCc3ccc(NC(=O)CCCCCCCCCCC(=O)Nc4cccc5c4C(=O)N(C4CCC(=O)NC4=O)C5)cc3)n2)c1 (centres unmarked) [Example 36, (E)-N^1-(2-(2,6-dioxopiperidin-3-yl)-3-oxoisoindolin-4-yl)-N^12-(4-(2-((4-(2-(3-methylbenzylidene)hydrazino)-6-morpholinopyrimidin-2-yl)oxy)ethyl)phenyl)dodecanediamide]"
8,1 to 100,"Cc1cccc(-c2ccn(-c3cc(N4CCOCC4)nc(OC4CCN(c5ccc(NC(=O)CC[C@H](NC(=O)[C@@H]6C[C@@H](O)CN6C(=O)[C@@H](NC(=O)C6(F)CC6)C(C)(C)C)c6ccc(-c7scnc7C)cc6)cc5)CC4)n3)n2)c1 [Example 68, (2S,4R)-1-((S)-2-(1-fluorocyclopropane-1-carboxamido)-3,3-dimethylbutanoyl)-4-hydroxy-N—((S)-1-(4-(4-methylthiazol-5-yl)phenyl)-4-((4-(4-((4-morpholino-6-(3-(m-tolyl)-1H-pyrazol-1-yl)pyrimidin-2-yl)oxy)piperidin-1-yl)phenyl)amino)-4-oxobutyl)pyrrolidine-2-carboxamide]"
